Laboratory results from US6444612B1, “Use of 5-amino-pyrazol-derivatives for combating micro-organisms” (Bayer Aktiengesellschaft, priority 1998, dated 2002).

Assay: log P value (physical constant)
Type: physicochemical
Conditions: for Physical constant (logP): Table 4

SMILES | logP (acidic) | Physical constant (logP)
CCOC(=O)c1c(CC)nn(C)c1NC(=O)Cc1cccc(Cl)c1 [Example 89, 5-(3-chloro-phenyl-acetyl)-amino-3-ethyl4-ethoxycarbonyl-l-methyl-pyrazole] | 2.65 | 
CCc1nn(C)c(NC(=O)Cc2c(C)cc(C)cc2C)c1Cl [Example 102] |  | logP = 3.01
CCOC(=O)c1c(CC)nn(C)c1NC(=O)Cc1ccc(OCc2ccccc2)cc1 [Example 104] |  | logP = 3.26
CCc1cc(NC(=O)Cc2ccc(Br)cc2)n(C)n1 [Example 105] |  | logP = 2.13
CCOC(=O)c1c(CC)nn(C)c1NC(=O)C=Cc1ccc(Oc2ccc(C#N)cc2)cc1 [Example 106] |  | logP = 3.16
CCOC(=O)c1c(CC)nn(C)c1NC(=O)C=Cc1ccc(Oc2ccc([N+](=O)[O-])cc2)cc1 [Example 107] |  | logP = 3.41
CCc1nn(C)c(NC(=O)C=Cc2ccc(Oc3ccc([N+](=O)[O-])cc3)cc2)c1C#N [Example 108] |  | logP = 3.05
Cn1nc(C2CC2)cc1NC(=O)Cc1ccc(Oc2ccc(C#N)cc2)cc1 [Example 109] |  | logP = 2.45
Cn1nc(C2CC2)c(Cl)c1NC(=O)Cc1ccc(Oc2ccc(C#N)cc2)cc1 [Example 110] |  | logP = 2.90
CCOC(=O)c1c(CC)nn(C)c1NC(=O)Cc1cccc(Oc2ccccc2)c1 [Example 111] |  | logP = 3.28
Cc1cc(NC(=O)Cc2ccccc2Cl)n(CCC#N)n1 [Example 113] |  | logP = 1.77
CC(=O)c1cccc(CC(=O)Nc2c(C#N)c(C)nn2C)c1 [Example 114] |  | logP = 1.48
CCc1nn(C)c(NC(=O)Cc2cccc(C(C)=O)c2)c1C#N [Example 115] |  | logP = 1.71
COC(=O)c1c(C)nn(C)c1NC(=O)Cc1cccc(C(C)=O)c1 [Example 116] |  | logP = 1.50
CC(=O)Oc1cccc(CC(=O)Nc2c(C#N)c(C)nn2C)c1 [Example 119] |  | logP = 1.88
CCc1nn(C)c(NC(=O)Cc2ccc(OC(C)=O)cc2)c1C#N [Example 120] |  | logP = 1.84
Cc1cc(NC(=O)Cc2ccc(Cl)cc2Cl)n(C)n1 [Example 121] |  | logP = 2.06
Cc1nn(C)c(NC(=O)Cc2ccccc2C(=O)O)c1Cl [Example 122] |  | logP = 1.50
CC(=NO)c1cccc(CC(=O)Nc2c(Cl)c(C)nn2C)c1 [Example 123] |  | logP = 1.85
CON=C(C)c1cccc(CC(=O)Nc2c(Cl)c(C)nn2C)c1 [Example 124] |  | logP = 2.32
CCON=C(C)c1cccc(CC(=O)Nc2c(Cl)c(C)nn2C)c1 [Example 125] |  | logP = 2.88
CC(=NOCc1ccccc1)c1cccc(CC(=O)Nc2c(Cl)c(C)nn2C)c1 [Example 126] |  | logP = 3.31
CC(=NOCc1ccc(C(F)(F)F)cc1)c1cccc(CC(=O)Nc2c(Cl)c(C)nn2C)c1 [Example 127] |  | logP = 3.83
CC(=NOCc1ccc(Cl)nc1)c1cccc(CC(=O)Nc2c(Cl)c(C)nn2C)c1 [Example 128] |  | logP = 2.80
CC(=NOCc1ccc(Cl)cc1Cl)c1cccc(CC(=O)Nc2c(Cl)c(C)nn2C)c1 [Example 129] |  | logP = 4.30
CC(=NOC(C)(C)C)c1cccc(CC(=O)Nc2c(Cl)c(C)nn2C)c1 [Example 130] |  | logP = 3.53
CC(=NOCc1c(Cl)cccc1Cl)c1cccc(CC(=O)Nc2c(Cl)c(C)nn2C)c1 [Example 131] |  | logP = 3.91
C=CCON=C(C)c1cccc(CC(=O)Nc2c(Cl)c(C)nn2C)c1 [Example 132] |  | logP = 2.80
CCCNC(=O)c1ccccc1CC(=O)Nc1c(Cl)c(C)nn1C [Example 133] |  | logP = 1.92
Cc1nn(C)c(NC(=O)Cc2ccccc2C(=O)NCc2ccc(Cl)nc2)c1Cl [Example 134] |  | logP = 1.91
